Experimental data reported in patent US7759083B2, “Screening method for a growth inhibitor or promoter of a vascular smooth muscle cell” (Shionogi & Co., Ltd., priority 2004, dated 2010).

Tests used:
[1] = system: vascular smooth muscle cells; assay: Proliferation reaction of vascular smooth muscle cells by human TAT ([methyl 3H] thymidine uptake); assay type: cell-based, rat; conditions: serum-free; only some (TAT reactive) vascular smooth muscle cells respond
Procedure: Vascular smooth muscle cells were plated in a 96-well plate at a density of 2×10^3/well and cultured under the same condition as Example 1. After 3 days, the medium was changed with DMEM containing 0.05% bovine serum albumin. After culturing for one more day, the medium was changed again with new DMEM containing 0.05% bovine serum albumin and TAT was added thereto. After 20 hours from addition of TAT, 0.05 μCi/well [methyl 3H] thymidine was added thereto and the cells were cultured for 2 hours. After washing cells twice with 5% trichloroacetic acid, Super mix (PerkinElmer, Inc.) was added thereto and radioactivity derived from [methyl 3H] thymidine taken in cells was measured by Micro Beta (PerkinEimer, Inc.) (FIG. 1).

[2] = system: TAT reactive rat vascular smooth muscle cell clones; assay: Cell proliferation potency by TAT after GPC3 knockdown with shRNA adenovirus ([methyl 3H] thymidine uptake); assay type: cell-based; conditions: adenovirus infection at MOI=10; compared to cells infected GFPi or LacZ used as a control; FIG. 3
Procedure: Adenovirus carrying GFPi or GPC3i was added to cells on a 10 cm laboratory dish at infectious MOI=10 to infect. The cells were moved on a 24-well plate 1 day after infection and cultured under the absence of blood serum for 24 hours. After that, thymidine taken in cells by the stimulus of TAT was measured.
Each of adenovirus inserted shRNA of Glypican 3 (GPC3) (GPC3i), adenovirus inserted shRNA of Green fluorescent protein (GFP) (GFPi) and adenovirus not inserted shRNA (LacZ) was infected to TAT reactive rat vascular smooth muscle cell clones. Cell proliferation potency by TAT was measured by uptake of [methyl 3H] thymidine according an experiment method.

Q: For thrombin-antithrombin III complex [TAT], which “proliferation of vascular smooth muscle cells” value [1] is on record?
A: The value was “proliferate some cells of vascular smooth muscle cells at very low concentration”.

Q: With “GPC3i: adenovirus inserted shRNA of Glypican 3 (GPC3), sequence SEQ ID: 2 (guide GAACTACACCAATGCCATGTT)” as the substance, how does the “cell proliferation by stimulus of TAT” value [2] read?
A: The value was “remarkably decreased”.
